Test results published in patent US5736529A, “Use of NAD-related compounds in the treatment of neural trauma to inhibit neurodegeneration” (priority 1996, dated 1998).

System: DNA in brain sections of C57BL/6 mice
Test: DNA fragmentation in brain regions upon treatment with tBuOOH (Tables 1 and 2)
Type: in vivo, mouse (C57BL/6)
Conditions: for Fraction of damaged DNA, Cerebellum / Fraction of damaged DNA, Cortex / Fraction of damaged DNA, Hippo / Fraction of damaged DNA, Midbrain / Fraction of damaged DNA, Striatum / Fraction of damaged DNA, Thalamus: mean ± SD
Method: In general male C57BL/6 mice (2, 8 or 24 months old) were anesthetized with ketamine and xylazine (200 and 2 mg/kg, ip). They were injected ICV with tBuOOH in doses of approximately 22 or 110 mg/kg. This amounts to 1 or 5 μl of a 70% solution of tBuOOH injected slowly into a lateral cerebral ventricle. A mouse brain weighs about 400 mg. […] Animals recovered from anesthesia about 30 minutes or so after tBuOOH administration. […] Low dose mice survived for 48 hours or more.
Young adult (2 month old) and mature (8 month old) C57BL/6 mice were divided into 7 groups with 8 animals in the control group and 4 animals in each of the other groups for both the age groups. A dose of 109.7 mg/kg of tBuOOH was administered ICV, to three groups of mice of both age groups. See Tables 1 and 2. tBuOOH was injected ICV following the technique described in Popick^2. The experiments ended 2 minutes, 5 minutes and 20 minutes after injection of tBuOOH. In the second set of experiments, 21.9 mg/kg of the toxin was administered ICV in the other three groups of mice with experimental durations of 12 hours, 24 hours and 48 hours respectively. The controls were treated with saline rather than tBuOOH.
The brains were removed after the allotted time period and sectioned immediately into the following sections: cortex, striatum, hippocampus, thalamus, midbrain and cerebellum.

[1] = 2 month old mice, 21.9 mg/kg ICV, 12 hours
[2] = 2 month old mice, 21.9 mg/kg ICV, 24 hours
[3] = 2 month old mice, 21.9 mg/kg ICV, 48 hours
[4] = 2 month old mice, 109.7 mg/kg ICV, 2 min
[5] = 2 month old mice, 109.7 mg/kg ICV, 2 min, * p<0.05 vs control
[6] = 2 month old mice, 109.7 mg/kg ICV, 5 min
[7] = 2 month old mice, 109.7 mg/kg ICV, 20 min
[8] = 2 month old mice, 109.7 mg/kg ICV, 20 min, * p<0.05 vs control
[9] = 8 month old mice, 21.9 mg/kg ICV, 12 hours
[10] = 8 month old mice, 21.9 mg/kg ICV, 24 hours

SMILES: CC(C)(C)OO [tBuOOH, t-butylhydroperoxide]
- effect on cortex DNA (2 and 8 month old mice, high or low dose): not affected
- DNA damage in all other brain sections (2 and 8 month old mice, high or low dose or both): some vulnerability
- Fraction of damaged DNA, Cerebellum [1]: 0.65 ± 0.19 per gram of tissue
- Fraction of damaged DNA, Cortex [1]: 0.53 ± 0.16 per gram of tissue
- Fraction of damaged DNA, Hippo [1]: 0.40 ± 0.16 per gram of tissue
- Fraction of damaged DNA, Midbrain [1]: 0.83 ± 0.58 per gram of tissue
- Fraction of damaged DNA, Striatum [1]: 1.13 ± 0.49 per gram of tissue
- Fraction of damaged DNA, Thalamus [1]: 1.29 ± 0.39 per gram of tissue
- Fraction of damaged DNA, Cerebellum [2]: 0.93 ± 0.36 per gram of tissue
- Fraction of damaged DNA, Cortex [2]: 0.47 ± 0.13 per gram of tissue
- Fraction of damaged DNA, Hippo [2]: 0.31 ± 0.04 per gram of tissue
- Fraction of damaged DNA, Midbrain [2]: 1.23 ± 0.12 per gram of tissue
- Fraction of damaged DNA, Striatum [2]: 1.16 ± 0.31 per gram of tissue
- Fraction of damaged DNA, Thalamus [2]: 1.44 ± 0.76 per gram of tissue
- Fraction of damaged DNA, Cortex [3]: 0.73 ± 0.03 per gram of tissue
- Fraction of damaged DNA, Hippo [3]: 0.50 ± 0.09 per gram of tissue
- Fraction of damaged DNA, Midbrain [3]: 1.24 ± 0.13 per gram of tissue
- Fraction of damaged DNA, Striatum [3]: 1.66 ± 0.33 per gram of tissue
- Fraction of damaged DNA, Thalamus [3]: 1.25 ± 0.14 per gram of tissue
- Fraction of damaged DNA, Cerebellum (2 month old mice, 21.9 mg/kg ICV, 48 hours, * p<0.05 vs control, 1 p<0.05 vs other age group): 1.29 ± 0.12 per gram of tissue
- significant damage in the hippocampus (2 month old mice, 109.7 mg/kg): significant damage was seen 2 minutes and 20 minutes after injection
- Fraction of damaged DNA, Cerebellum [4]: 1.17 ± 0.25 per gram of tissue
- Fraction of damaged DNA, Cortex [4]: 0.84 ± 0.33 per gram of tissue
- Fraction of damaged DNA, Striatum [4]: 2.00 ± 0.45 per gram of tissue
- Fraction of damaged DNA, Hippo [5]: 0.66 ± 0.09 per gram of tissue
- Fraction of damaged DNA, Midbrain [5]: 2.48 ± 1.02 per gram of tissue
- Fraction of damaged DNA, Thalamus [5]: 2.66 ± 0.33 per gram of tissue
- Fraction of damaged DNA, Cerebellum [6]: 0.88 ± 0.20 per gram of tissue
- Fraction of damaged DNA, Cortex [6]: 0.82 ± 0.23 per gram of tissue
- Fraction of damaged DNA, Hippo [6]: 0.41 ± 0.05 per gram of tissue
- Fraction of damaged DNA, Midbrain [6]: 1.71 ± 0.77 per gram of tissue
- Fraction of damaged DNA, Striatum [6]: 1.66 ± 0.52 per gram of tissue
- Fraction of damaged DNA, Thalamus (2 month old mice, 109.7 mg/kg ICV, 5 min, * p<0.05 vs control): 2.85 ± 0.83 per gram of tissue
- Fraction of damaged DNA, Cortex [7]: 0.76 ± 0.26 per gram of tissue
- Fraction of damaged DNA, Thalamus [7]: 2.46 ± 0.65 per gram of tissue
- Fraction of damaged DNA, Cerebellum [8]: 1.39 ± 0.51 per gram of tissue
- Fraction of damaged DNA, Hippo [8]: 0.66 ± 0.14 per gram of tissue
- Fraction of damaged DNA, Midbrain [8]: 3.09 ± 0.28 per gram of tissue
- Fraction of damaged DNA, Striatum [8]: 2.56 ± 0.49 per gram of tissue
- hippocampus damage at 5 minutes compared with other age group (2 month old vs 8 month old mice, 109.7 mg/kg): significantly lower
- significant damage in the cerebellum, early (8 month old mice after 5 and 20 minutes, 2 month old mice after 20 minutes): Significant damage was observed after 5 minutes and 20 minutes, in the case of the 8 month old cerebellum and after 20 minutes in the 2 month old cerebellum
- Fraction of damaged DNA, Cerebellum [9]: 0.69 ± 0.15 per gram of tissue
- Fraction of damaged DNA, Cortex [9]: 0.61 ± 0.10 per gram of tissue
- Fraction of damaged DNA, Hippo [9]: 0.46 ± 0.17 per gram of tissue
- Fraction of damaged DNA, Midbrain [9]: 0.76 ± 0.24 per gram of tissue
- Fraction of damaged DNA, Striatum [9]: 1.17 ± 0.33 per gram of tissue
- Fraction of damaged DNA, Thalamus [9]: 1.08 ± 0.30 per gram of tissue
- Fraction of damaged DNA, Cerebellum [10]: 0.67 ± 0.16 per gram of tissue
- Fraction of damaged DNA, Cortex [10]: 0.65 ± 0.13 per gram of tissue
- Fraction of damaged DNA, Hippo [10]: 0.46 ± 0.05 per gram of tissue
- Fraction of damaged DNA, Midbrain [10]: 1.05 ± 0.35 per gram of tissue
- Fraction of damaged DNA, Striatum [10]: 0.99 ± 0.06 per gram of tissue
- Fraction of damaged DNA, Thalamus [10]: 0.75 ± 0.27 per gram of tissue
